US20220304978A1, “INHIBITING MESANGIAL CELL ACTIVATION” (Chinook Therapeutics, Inc., priority 2019, published 2022)
Positions of bridges follow the written chain, without caps; N, C: chain ends. No end group written: not given here.

Test system: IL-6 production in primary human mesangial cells
Assay: ET-1 induced IL-6 production in HRMCs (ELISA)
Assay type: cell-based

ET-1: endothelin 1 (ET-1), used to stimulate primary human mesangial cells (CSCSSLMDKECVYFCHLDIIW; disulfide 1-15, 3-11; ends not checked; UniProt P05305 53-73, looked up)
increase in IL-6 production by primary human mesangial cells exposed to ET-1 (48 hours): ~6 fold
increase in IL-6 production by primary human mesangial cells exposed to ET-1 (72 hours): ~2.2 fold
